Key:
[1] = test system: HuH-7 hepatocellular carcinoma cells; test: CellTiter Glo (CTG) proliferation/viability assay; assay type: cell-based; settings: HuH-7 cells, 3 days, half-maximal growth inhibition (GI50), read-out: HUH7 proliferation CTG
Experimental: CellTiter Glo (CTG) Assay:
The functional effect of compounds on cell proliferation is assessed using HuH-7 hepatocellular carcinoma cells obtained from the Japanese Collection of Research Bioresources Cell Bank (Cat# JCRB0403) and cultured in the vendor-recommended medium (DMEM high glucose (Amimed Cat#1-26F01-I), 10% foetal calf serum (Invitrogen Cat#16140-071), 1 mM sodium pyruvate (Amimed Cat#5-60F00-H), 1× Penicillin/Streptomycin (Amimed Cat#4-01F00-H)) at 37° C. in a humidified 5% CO2 incubator. Compound-mediated suppression of cell proliferation/viability is assessed by quantification of cellular ATP levels using the CellTiter-Glo (CTG) reagent (Promega, Cat# G7573). Briefly, cells are seeded at 3′000 cells/well/80 μl fresh medium into tissue-culture-treated 96-well plates (Costar Cat#3904), followed by addition of 20 μl medium containing compound dilutions at 5-fold their final intended concentration. Dose-response effects are assessed by 3-fold serial dilutions of the test compound, starting at 10 μM. Following incubation of the cells for 3 days at 37° C. and 5% CO2, the effect of inhibitors on cell viability is quantified following addition of 50 μl CTG and luminescence measurement (integration time: 500 ms) as per vendor manual, using a correspondingly equipped multi-mode plate reader (M200Pro, TECAN, Switzerland). For data analysis, the assay background value determined in wells containing medium, but no cells, is subtracted from all data points. To enable differentiation of cytotoxic from cytostatic compounds, the number of viable cells is assessed relative to that observed at the time of compound addition using a separate cell plate (day 0). The effect of a particular test compound concentration on cell proliferation/viability is expressed as percentage of the background- and day 0-corrected luminescence reading obtained for cells treated with vehicle only (DMSO, 0.1% f.c.), which is set as 100%, whereas the luminescence reading for wells containing medium only, but no cells, is set as −100%. Compound concentrations leading to half-maximal growth inhibition (GI50) are determined using standard four parameter curve fitting (XLfit 5.2., IDBS, UK).

[2] = target: T1, FGFR4 (GST-FGFR4(388-802)) (Homo sapiens, UniProt P22455); test: In-vitro biochemical kinase assay for FGFR4 (Caliper mobility shift); settings: 60 minutes at 30° C.
T1 construct: GST-FGFR4(388-802); GST (N); made in house; host or cells: insect cells
Experimental: In-Vitro Biochemical Kinase Assays for FGFR4
All assays were performed in 384 well microtiter plates. Each assay plate contained 8-point serial dilutions for 40 test compounds, as well as four 8-point serial dilutions of staurosporine as reference compound, plus 16 high and 16 low controls.
(§1) Liquid handling and incubation steps were done on an Innovadyne Nanodrop Express equipped with a robotic arm (Thermo CatX, Caliper Twister II) and an incubator (Liconic STX40, Thermo Cytomat 2C450). The assay plates were prepared by addition of 50 nI per well of compound solution in 90% DMSO. […] Kinase reactions were incubated at 30° C. for 60 minutes and subsequently terminated by addition of 16 μl per well of stop solution (100 mM HEPES pH 7.5, 5% DMSO, 0.1% Caliper coating reagent, 10 mM EDTA, and 0.015% Brij35). Plates with terminated kinase reactions were transferred to the Caliper LC3000 workstations for reading. Phosphorylated and unphosphorylated peptides were separated using the Caliper microfluidic mobility shift technology. Briefly, samples from terminated kinase reactions were applied to the chip. Analytes are transported through the chip by constant buffer flow and the migration of the substrate peptide is monitored by the fluorescence signal of its label. Phosphorylated peptide (product) and unphosphorylated peptide (substrate) are separated in an electric field by their charge/mass ratio. Kinase activities were calculated from the amounts of formed phospho-peptide. IC50 values were determined from percent inhibition values at different compound concentrations by non-linear regression analysis.
Preparation of Compound Dilutions
Test compounds were dissolved in DMSO (10 mM) and transferred into 1.4 mL flat bottom or V-shaped Matrix tubes carrying a unique 2D matrix. The stock solutions were stored at […] if not used immediately. For the test procedure the vials were defrosted and identified by a scanner whereby a working sheet was generated that guided the subsequent working steps.
Compound dilutions were made in 96 well plates. This format enabled the assay of maximally 40 individual test compounds at 8 concentrations (single points) including 4 reference compounds. The dilution protocol included the production of “pre-dilution plates”, “master plates” and “assay plates”.
96 polypropylene well plates were used as pre-dilution plates. A total of 4 pre-dilution plates were prepared including 10 test compounds each on the plate positions A1-A10, one standard compound at A11 and one DMSO control at A12. All dilution steps were done on a HamiltonSTAR robot.
These plates were used directly for the assay which was performed in a total volume of 9.05 μL.

[3] = target: BaF3-Tel-FGFR4 cells (TEL fused to cytoplasmic domain of FGFR4) (Homo sapiens, UniProt P22455); test: In vitro cellular kinase assay for FGFR4 (BaF3-Tel-FGFR4, MSD capture ELISA of tyrosine phosphorylation); settings: 1 hour incubation
[4] = test system: HuH-7 hepatocellular carcinoma cells; test: Methylene blue staining proliferation assay (MBS); assay type: cell-based; settings: Homo sapiens, HuH-7 cells, 72 hours, read-out: HUH7 proliferation MBS
Experimental: Methylene Blue Staining Proliferation Assay (MBS):
The effect of compounds on cell proliferation is assessed using HuH-7 hepatocellular carcinoma cells obtained from the Japanese Collection of Research Bioresources Cell Bank (Cat# JCRB0403) and cultured in the vendor-recommended medium (DMEM high glucose (Amimed Cat#1-26F01-I), 10% foetal calf serum (Invitrogen Cat#16140-071), 1 mM sodium pyruvate (Amimed Cat#5-60F00-H), 1× Penicillin/Streptomycin (Amimed Cat#4-01F00-H)) at 37° C. in a humidified 5% CO2 incubator. […] 72 hours after compound addition, cells were fixed by adding 25 μL/well of 20% glutaraldehyde (Sigma Aldrich Cat# G400-4) and incubated for 10 minutes at room temperature. Cells were washed three times with H2O, 200 μL/well and stained with 100 μL/well 0.05% methylene blue (ABCR GmbH Cat# AB117904) for 10 minutes at room temperature. Cells were washed 3 times with H2O, 200 μL/well and then lysed by adding 200 μL/well of 3% HCl (Fluka Cat#84422) for 30 minutes at room temperature with shaking. Optical density was measured at A650 nm. The concentration of compound providing 50% of proliferation inhibition with respect to DMSO-treated cells was determined (IC50) using XLFit software.

[5] = target: T2, FGFR2 (406-821) (Homo sapiens, UniProt P21802); test: In vitro biochemical assay for FGFR2
T2 construct: FGFR2 (406-821)
Experimental: as §1
(§2) In vitro biochemical assays for FGFR1 (407-822), FGFR2 (406-821) and FGFR3 (411-806) were conducted in a similar manner to the in vitro biochemical assay for FGFR4 described above, using the indicated portions of the kinase domains. The following examples all produced IC50 values >10000 nM in the biochemical FGFR1, FGFR2 and FGFR3 assays: 2, 3, 4, 11, 13, 16, 17, 18, 20, 28, 30.

[6] = target: T3, FGFR1 (407-822) (Homo sapiens, UniProt P11362); test: In vitro biochemical assay for FGFR1
T3 construct: FGFR1 (407-822)
Experimental: as §1, §2

[7] = target: T4, FGFR3 (411-806) (Homo sapiens, UniProt P22607); test: In vitro biochemical assay for FGFR3
T4 construct: FGFR3 (411-806)
Experimental: as §1, §2

T2 sequence (P21802 406-821): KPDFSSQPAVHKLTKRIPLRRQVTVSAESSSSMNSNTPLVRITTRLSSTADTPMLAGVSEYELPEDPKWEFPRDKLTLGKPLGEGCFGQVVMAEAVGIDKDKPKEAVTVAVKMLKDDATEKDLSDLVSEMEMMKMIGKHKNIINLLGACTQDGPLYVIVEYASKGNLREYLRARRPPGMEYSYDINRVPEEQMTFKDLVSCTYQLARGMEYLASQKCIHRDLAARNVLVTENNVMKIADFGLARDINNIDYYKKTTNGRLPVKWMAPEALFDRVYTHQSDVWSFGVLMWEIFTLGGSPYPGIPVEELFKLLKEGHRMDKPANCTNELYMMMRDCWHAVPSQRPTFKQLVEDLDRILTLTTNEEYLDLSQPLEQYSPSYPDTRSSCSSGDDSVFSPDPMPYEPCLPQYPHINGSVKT
BaF3-Tel-FGFR4 cells (TEL fused to cytoplasmic domain of FGFR4), sequence (P22455 with tags, fused parts or gaps): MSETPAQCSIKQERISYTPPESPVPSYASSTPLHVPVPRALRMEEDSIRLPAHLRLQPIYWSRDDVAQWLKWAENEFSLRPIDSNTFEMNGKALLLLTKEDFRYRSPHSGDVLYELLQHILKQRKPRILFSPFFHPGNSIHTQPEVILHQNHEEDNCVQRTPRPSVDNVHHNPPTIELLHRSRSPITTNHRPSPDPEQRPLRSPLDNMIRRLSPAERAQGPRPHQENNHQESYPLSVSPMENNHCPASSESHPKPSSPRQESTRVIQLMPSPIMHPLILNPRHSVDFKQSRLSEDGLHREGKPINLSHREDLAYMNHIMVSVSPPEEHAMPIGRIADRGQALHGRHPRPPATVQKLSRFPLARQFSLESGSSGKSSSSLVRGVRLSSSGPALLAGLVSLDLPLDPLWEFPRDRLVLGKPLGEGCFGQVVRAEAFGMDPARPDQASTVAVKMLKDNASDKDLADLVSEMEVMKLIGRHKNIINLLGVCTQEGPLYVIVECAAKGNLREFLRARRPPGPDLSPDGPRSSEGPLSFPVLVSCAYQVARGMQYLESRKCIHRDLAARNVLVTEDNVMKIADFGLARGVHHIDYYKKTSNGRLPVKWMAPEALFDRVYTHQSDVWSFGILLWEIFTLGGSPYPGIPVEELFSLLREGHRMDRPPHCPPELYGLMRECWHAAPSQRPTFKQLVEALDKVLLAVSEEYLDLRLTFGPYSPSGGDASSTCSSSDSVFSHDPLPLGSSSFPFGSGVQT
T4 sequence (P22607 411-806): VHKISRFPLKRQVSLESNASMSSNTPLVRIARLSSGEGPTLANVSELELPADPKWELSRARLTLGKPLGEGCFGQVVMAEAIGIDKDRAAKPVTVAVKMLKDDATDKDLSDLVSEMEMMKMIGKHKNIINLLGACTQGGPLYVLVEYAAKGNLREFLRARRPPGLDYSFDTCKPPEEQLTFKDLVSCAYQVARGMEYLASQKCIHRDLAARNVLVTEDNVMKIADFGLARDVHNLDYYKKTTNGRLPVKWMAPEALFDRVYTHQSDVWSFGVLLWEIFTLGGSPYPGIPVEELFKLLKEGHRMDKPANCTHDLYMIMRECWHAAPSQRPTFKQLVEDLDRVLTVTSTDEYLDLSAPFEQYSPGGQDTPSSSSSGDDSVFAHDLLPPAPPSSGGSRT
T3 sequence (P11362 407-822): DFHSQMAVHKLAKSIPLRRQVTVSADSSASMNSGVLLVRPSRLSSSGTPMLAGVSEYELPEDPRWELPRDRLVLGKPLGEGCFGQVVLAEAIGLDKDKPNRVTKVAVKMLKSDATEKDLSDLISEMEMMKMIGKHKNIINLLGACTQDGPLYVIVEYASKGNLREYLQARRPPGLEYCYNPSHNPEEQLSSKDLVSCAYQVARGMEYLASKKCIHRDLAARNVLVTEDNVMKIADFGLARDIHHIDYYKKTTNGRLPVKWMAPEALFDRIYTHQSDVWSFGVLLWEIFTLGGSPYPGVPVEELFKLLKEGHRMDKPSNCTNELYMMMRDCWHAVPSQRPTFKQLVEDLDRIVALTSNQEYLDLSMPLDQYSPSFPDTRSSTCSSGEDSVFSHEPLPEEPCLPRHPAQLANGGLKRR
T1 sequence (P22455 388-802): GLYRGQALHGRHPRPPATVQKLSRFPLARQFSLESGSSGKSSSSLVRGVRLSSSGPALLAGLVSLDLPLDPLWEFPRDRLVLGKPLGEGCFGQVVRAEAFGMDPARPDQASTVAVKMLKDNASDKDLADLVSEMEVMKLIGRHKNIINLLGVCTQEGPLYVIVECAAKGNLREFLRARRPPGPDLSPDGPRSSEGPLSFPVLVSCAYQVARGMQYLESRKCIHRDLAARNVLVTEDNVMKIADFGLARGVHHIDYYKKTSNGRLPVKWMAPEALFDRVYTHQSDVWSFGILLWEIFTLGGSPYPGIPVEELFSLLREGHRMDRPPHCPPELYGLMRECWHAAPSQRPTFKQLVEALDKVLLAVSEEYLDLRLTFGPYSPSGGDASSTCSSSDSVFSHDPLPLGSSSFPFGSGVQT

SMILES | IC50 ([1]; Homo sapiens, Huh-7, 72 h) | IC50 [2] | IC50 [3] | IC50 [4] | IC50 [5] | IC50 [6] | IC50 [7] | IC50 [1]
COCCNc1cc(NC(=O)N(C)c2ccc(C(=O)O)c(C=O)n2)ncc1C#N [Example 9, 6-(3-(5-cyano-4-((2-methoxyethyl)amino)pyridin-2-yl)-1-methylureido)-2-formylnicotinic acid] | > 3000 nM | 1.3 nM | 1270 nM | > 3000 nM |  |  |  | 
CC(C)Oc1cc(NC(=O)N(C)c2ccc(CN3CCN(C)CC3)c(C=O)n2)ncc1C#N [Example 17, 3-(5-cyano-4-isopropoxypyridin-2-yl)-1-(6-formyl-5-((4-methylpiperazin-1-yl)methyl)pyridin-2-yl)-1-methylurea] | 2760 nM | 29 nM | 145 nM |  | > 10000 nM | > 10000 nM | > 10000 nM | 
CCN(C(=O)Nc1cc(NCCOC)c(C#N)cn1)c1ccc(-c2cnn(C)c2)c(C=O)n1 [Example 10, 3-(5-cyano-4-((2-methoxyethyl)amino)pyridin-2-yl)-1-ethyl-1-(6-formyl-5-(1-methyl-1H-pyrazol-4-yl)pyridin-2-yl)urea] |  | 10 nM | 13 nM | 1090 nM |  |  |  | 
COCCNc1cc(NC(=O)N(C)c2ccc(CN(C)C(C)=O)c(C=O)n2)ncc1C#N [Example 15, N-((6-(3-(5-cyano-4-((2-methoxyethyl)amino)pyridin-2-yl)-1-methylureido)-2-formylpyridin-3-yl)methyl)-N-methylacetamide] | 106 nM |  | 4.8 nM | 25 nM |  |  |  | 
COCCNc1cc(NC(=O)N(C)c2ccc(C(F)F)c(C=O)n2)ncc1C#N [Example 16, 3-(5-cyano-4-((2-methoxyethyl)amino)pyridin-2-yl)-1-(5-(difluoromethyl)-6-formylpyridin-2-yl)-1-methylurea] | 90 nM | 2.7 nM | 7.7 nM | 51 nM | > 10000 nM | > 10000 nM | > 10000 nM | 
COCCNc1cc(NC(=O)N(C)c2ccc(CN3CCCC3=O)c(C=O)n2)ncc1C#N [Example 20, 3-(5-cyano-4-((2-methoxyethyl)amino)pyridin-2-yl)-1-(6-formyl-5-((2-oxopyrrolidin-1-yl)methyl)pyridin-2-yl)-1-methylurea] | 100 nM | 4.3 nM | 5.3 nM |  | > 10000 nM | > 10000 nM | > 10000 nM | 
CC(C)Oc1cc(NC(=O)N(C)c2ccc(C(F)F)c(C=O)n2)ncc1C#N [Example 18, 3-(5-cyano-4-isopropoxypyridin-2-yl)-1-(5-(difluoromethyl)-6-formylpyridin-2-yl)-1-methylurea] | 463 nM | 1.9 nM | 25 nM | 191 nM | > 10000 nM | > 10000 nM | > 10000 nM | 
COCCNc1cc(NC(=O)N(C)c2ccc(-c3cnn(C)c3)c(C=O)n2)ncc1C#N [Example 13, 3-(5-cyano-4-((2-methoxyethyl)amino)pyridin-2-yl)-1-methyl-1-(6-formyl-5-(1-methyl-1H-pyrazol-4-yl)pyridin-2-yl)urea] | 664 nM | 5.8 nM | 53 nM |  | > 10000 nM | > 10000 nM | > 10000 nM | 
COCCNc1cc(Nc2ccnn2-c2ccc(-c3cnn(C)c3)c(C=O)n2)ncc1C(F)(F)F [Example 28, 6-(5-((4-((2-methoxyethyl)amino)-5-(trifluoromethyl)pyridin-2-yl)amino)-1H-pyrazol-1-yl)-3-(1-methyl-1H-pyrazol-4-yl)picolinaldehyde] | > 3000 nM | 480 nM | 2640 nM |  | > 10000 nM | > 10000 nM | > 10000 nM | 2660 nM
CC(C)Oc1cc(NC(=O)Nc2nccc(C=O)n2)ncc1C#N [Example 30, 1-(5-cyano-4-isopropoxypyridin-2-yl)-3-(4-formylpyrimidin-2-yl)urea] | > 3000 nM | 100 nM | 982 nM |  | > 10000 nM | > 10000 nM | > 10000 nM | 
